Where two headings read alike, the source gives them in different places.
How the values were obtained:
[1] = system: NCI-H716 cells; assay: cells; assay type: cell-based, Human; settings: for EC50: read-out: GLP 1 Secretion
[2] = system: HCT116; assay: cells; assay type: cell-based; settings: for Basal_Viability ATP HCT116 IC50/EC50: assay number 25
[3] = system: HeLa cells; assay: cells; assay type: cell-based; settings: for EC50: read-out: CellCycle G2/M
[4] = system: nuclear β-catenin in C2C12 cells; assay: cells; assay type: cell-based
[5] = system: INS-1E cells; assay: cells; assay type: cell-based, rat;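 as to 5mMGluc INS1E SecretionMod IC50/EC50: secreted insulin quantified by homogeneous immunoassay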
[6] = system: SW480; assay: cells; assay type: cell-based; settings: for Basal_Viability ATP SW480 IC50/EC50: assay number 24, basal
[7] = system: DLD-1; assay: cells; assay type: cell-based
[8] = system: endothelial tube formation in co-cultures of ECFCs and ADSCs treated with VEGF; assay: cells; assay type: cell-based, human; settings: for IC50: read-out: Anti-Angiogenesis
[9] = system: HCT116 cells treated with a GSK3β inhibitor; assay: cells; assay type: cell-based; settings: for GSK3b inh pretreated_Viability ATP HCT116 IC50/EC50: assay number 26
[10] = system: RKO; assay: cells; assay type: cell-based; settings: for Basal_Viability ATP RKO IC50/EC50: assay number 29, basal
[11] = system: Colo320; assay: cells; assay type: cell-based; settings: for Basal_Viability ATP Colo 320 IC50/EC50: assay number 27, basal
[12] = system: SNU-C1; assay: cells; assay type: cell-based; settings: for Basal_Viability ATP SNU-C1 IC50/EC50: assay number 30, basal
[13] = system: ECFC/ADSC co-culture cell nuclei number
[14] = system: HT-29; assay: cells; assay type: cell-based; settings: assay number 28; basal
[15] = read-out: Basal_Viability ATP HCT116
[16] = Homo sapiens, SW480, basal, read-out: Basal_Viability ATP SW480
[17] = Homo sapiens, HCT-116, basal, read-out: Basal_Viability ATP HCT116
[18] = Homo sapiens, DLD-1, basal, read-out: Basal_Viability ATP DLD-1
[19] = Homo sapiens, HCT-116, GSK3b inhibitor pretreated, read-out: GSK3b inh pretreated_Viability ATP HCT116
[20] = Mus musculus, C2C12, IC50 / EC50, C2C12 beta-catenin translocation, read-out: Wnt Pathway
[21] = Rattus norvegicus; IC50 / EC50; INS-1E; read-out: Insulin Secretion
[22] = Homo sapiens, SW480, basal, SW480, read-out: Basal_Viability ATP SW480
[23] = Homo sapiens, HCT-116, basal, HCT116, read-out: Basal_Viability ATP HCT116
[24] = Homo sapiens, DLD-1, basal, DLD-1, read-out: Basal_Viability ATP DLD-1
[25] = Homo sapiens, HCT-116, HCT116 pretreated with GSK3b inhibitor, read-out: GSK3b inh pretreated_Viability ATP HCT116
[26] = Mus musculus, C2C12, S2 Table, module primary assay, 20 / 20.1 codes per legend, read-out: Wnt Pathway
[27] = Rattus norvegicus, INS-1E; read-out: Insulin Secretion
[28] = Homo sapiens, HeLa, IC50 / EC50, HeLa
[29] = Homo sapiens, DLD-1, read-out: Basal_Viability ATP DLD-1
[30] = Homo sapiens, HCT-116, read-out: GSK3b inh pretreated_Viability ATP HCT116

SMILES: Oc1c(Cl)cc(Cl)c(Cl)c1Cc1c(O)c(Cl)cc(Cl)c1Cl
- EC50 [1]: > 10 µM
- IC50 [2, 15]: 0.0312 µM
- EC50 [3]: > 10 µM
- EC50 ([4]; read-out: Wnt Pathway): > 10 µM
- EC50 ([5]; read-out: Insulin Secretion): > 10 µM

SMILES: O=C(CCBr)N1CCN(C(=O)CCBr)CC1 [Abbott brand of pipobroman]
- IC50 ([6]; read-out: Basal_Viability ATP SW480): > 20 µM
- IC50 [2, 15]: > 20 µM
- IC50 ([7]; read-out: Basal_Viability ATP DLD-1): > 20 µM
- EC50 [3]: > 10 µM
- IC50 [8]: 1.37 µM
- IC50 ([9]; read-out: GSK3b inh pretreated_Viability ATP HCT116): 14 µM
- EC50 ([4]; read-out: Wnt Pathway): > 10 µM
- EC50 ([5]; read-out: Insulin Secretion): > 10 µM

SMILES: Cc1c(C)n(CCN(C)C)c2ccc(C(=O)OCCN(C)C)cc12 [Amindocate]
- EC50 ([1]; Homo sapiens, IC50 / EC50, NCI-H716): 1.2 µM
- IC50 [6, 16]: 10.2 µM
- IC50 [2, 17]: > 20 µM
- IC50 [7, 18]: > 20 µM
- IC50 [9, 19]: > 20 µM
- EC50 [4, 20]: > 10 µM
- EC50 [5, 21]: > 10 µM

SMILES: CC(C)(C)CC(C)(C)c1ccc(O)c(Cc2ccc(Cl)cc2Cl)c1 [Clofoctol]
- EC50 ([1]; Homo sapiens, NCI-H716): 0.544 µM
- IC50 [6, 22]: 3.97 µM
- IC50 [2, 23]: 5.31 µM
- IC50 [7, 24]: 2.18 µM
- IC50 [9, 25]: 4.73 µM
- EC50 [4, 26]: > 10 µM
- EC50 [5, 27]: > 20 µM

SMILES: Cc1ccc(CCn2c3c(c4cc(Cl)ccc42)CN(C)CC3)cn1 [Dorastine]
- IC50 [6, 16]: 9.46 µM
- IC50 [2, 17]: 13.4 µM
- IC50 [7, 18]: > 20 µM
- EC50 [3, 28]: > 10 µM
- IC50 ([8]; Homo sapiens, IC50 / EC50, endothelial tube area, ADSC/ECFC co-culture): > 10 µM
- IC50 [9, 19]: > 20 µM
- EC50 [4, 20]: > 10 µM
- EC50 [5, 21]: 4.2 µM

SMILES: CCN(CC)CCCC(C)Nc1c2ccc(Cl)cc2nc2ccc(OC)cc12 (stereo not drawn) [Mepacrine]
- IC50 ([10]; Homo sapiens, RKO, read-out: Basal_Viability ATP RKO): 3.42 µM
- IC50 [6, 16]: 3.6 µM
- IC50 [2, 17]: 5.81 µM
- IC50 ([11]; Homo sapiens, COLO 320, read-out: Basal_Viability ATP Colo 320): 8.44 µM
- IC50 [7, 29]: 7.15 µM
- EC50 [3, 28]: > 10 µM
- IC50 [9, 19]: 4.48 µM
- EC50 [4, 20]: > 10 µM
- IC50 ([12]; Homo sapiens, SNU-C1, basal, read-out: Basal_Viability ATP SNU-C1): 3.84 µM
- EC50 [5, 21]: 4.07 µM

SMILES: CN(C)c1ccc2nc3ccc(=[N+](C)C)cc-3sc2c1 [Methylene blue]
- IC50 ([6]; Homo sapiens, SW480, read-out: Basal_Viability ATP SW480): 2.68 µM
- IC50 ([2]; Homo sapiens, HCT-116, read-out: Basal_Viability ATP HCT116): 2.93 µM
- IC50 [7, 29]: > 20 µM
- IC50 [9, 30]: 1.39 µM
- EC50 ([4]; Mus musculus, C2C12, read-out: Wnt Pathway): > 10 µM
- EC50 ([5]; Rattus norvegicus, INS-1E, read-out: Insulin Secretion): > 10 µM

SMILES: Clc1ccc(COC(Cn2ccnc2)c2ccc(Cl)cc2Cl)cc1.O=[N+]([O-])O (stereo not drawn) [NCGC00018258-10]
- hNCI-H716 GLP1 Secretion IC50/EC50 ([1]; assay number 12): 25.6136 µM
- VEGF_ADSC\ECFC Angio Hoechst NucArea IC50/EC50 [13]: 9.932 µM

SMILES: O=C1NCN(c2ccccc2)C12CCN(CCCOc1ccc(F)cc1)CC2 [NCGC00024633-07]
- Basal_Viability ATP RKO IC50/EC50 [10]: 5.3051 µM
- Basal_Viability ATP SW480 IC50/EC50 [6]: 4.608 µM
- Basal_Viability ATP HCT116 IC50/EC50 ([2]; basal): 8.82 µM
- Basal_Viability ATP Colo 320 IC50/EC50 [11]: 11.821 µM
- Basal_Viability ATP DLD-1 IC50/EC50 ([7]; assay number 23, basal): 0.8817 µM
- GSK3b inh pretreated_Viability ATP HCT116 IC50/EC50 ([9]; GSK3b inhibitor pretreated): 5.333 µM
- Basal_Viability ATP HT-29 IC50/EC50 [14]: 2.458 µM
- Basal_Viability ATP SNU-C1 IC50/EC50 [12]: 0.2416 µM
- 5mMGluc_INS1E SecretionMod IC50/EC50 ([5]; assay number 8; 5 mM glucose): > 33.33 µM

SMILES: Cc1ccc(C(=O)Nc2ccc(S(=O)(=O)O)c3cc(S(=O)(=O)O)cc(S(=O)(=O)O)c23)cc1NC(=O)c1cccc(NC(=O)Nc2cccc(C(=O)Nc3cc(C(=O)Nc4ccc(S(=O)(=O)O)c5cc(S(=O)(=O)O)cc(S(=O)(=O)O)c45)ccc3C)c2)c1 [NCGC00025177-08]
- IC50/EC50, hNCI-H716 GLP1 Secretion (assay number 12) ([1]; concentration response): > 40 µM

SMILES: OCCOc1ccccc1 [NCGC00090731-08]
- assay 11 hNCI-H716 GLP1 Secretion max %stim ([1]; single concentration screen (2 or 10 μM), maximum of all test results): 3.7%
- assay 1 Angio CD31 TubeArea max %inh ([8]; single concentration screen (2 and 10 μM), maximum of all test results, 0 = DMSO, 100 = positive control): 8.6%
- assay 4 WntCondMedia bCatenin fluor/nucarea C2C12 max %stim ([4]; single concentration screen (2 and 10 μM), maximum of all test results): 0.5%
- assay 7 5mMGluc INS1E InsulinRelease max %stim ([5]; single concentration screen (2 and 10 μM), 5 mM glucose, maximum of all test results): 0.2%

SMILES: CC(=O)O[C@@]12CO[C@@H]1C[C@H](O)[C@@]1(C)C(=O)[C@H](O)C3=C(C)[C@@H](OC(=O)[C@H](O)[C@@H](NC(=O)OC(C)(C)C)c4ccccc4)C[C@@](O)([C@@H](OC(=O)c4ccccc4)[C@H]21)C3(C)C [NCGC00181306-04]
- Basal_Viability ATP RKO IC50/EC50 [10]: 0.001 µM
- Basal_Viability ATP SW480 IC50/EC50 [6]: 0.001 µM
- Basal_Viability ATP HCT116 IC50/EC50 ([2]; basal): 0.001 µM
- Basal_Viability ATP Colo 320 IC50/EC50 [11]: 0.001 µM
- Hela CellCycMod PI 2N IC50/EC50 ([3]; assay number 14, 2N): 0.0031 µM
- Hela CellCycMod PI S Phase IC50/EC50 ([3]; assay number 15, S phase): > 10 µM
- Hela CellCycMod PI 4N IC50/EC50 ([3]; assay number 16, 4N): 0.00335 µM
- Hela CellCycMod PI MI IC50/EC50 ([3]; assay number 17, MI): 0.00317 µM
- Hela CellCycMod PI Cell Number IC50/EC50 ([3]; assay number 18, cell number): 0.001 µM
- VEGF_ADSC\ECFC Angio CD31 TubeArea IC50/EC50 [8]: 0.001 µM
- VEGF_ADSC\ECFC Angio Hoechst NucArea IC50/EC50 [13]: > 10 µM
- GSK3b inh pretreated_Viability ATP HCT116 IC50/EC50 ([9]; GSK3b inhibitor pretreated): 0.001 µM
- Basal_Viability ATP HT-29 IC50/EC50 [14]: 0.001 µM
- WntCondMedia_bCatenin C2C12 IC50/EC50 ([4]; assay number 5, concentration response): 0.0652 µM
- Basal_Viability ATP SNU-C1 IC50/EC50 [12]: > 20 µM

SMILES: CNC(=O)c1cc(Oc2ccc(NC(=O)Nc3ccc(Cl)c(C(F)(F)F)c3)cc2)ccn1 [Sorafenib tosilate]
- EC50 ([1]; Homo sapiens, NCI-H716): > 10 µM
- EC50 ([3]; Homo sapiens, HeLa, S2 Table, HeLa, 20 = no response at highest concentration): > 10 µM
- IC50 [9, 30]: 1.12 µM
- EC50 [4, 26]: > 10 µM
- EC50 [5, 27]: > 10 µM

SMILES: CNC(=O)c1cc(Oc2ccc(NC(=O)Nc3ccc(Cl)c(C(F)(F)F)c3)cc2)ccn1 [Sorafenib, reference compound]
- activity in the Wnt potentiation module (in words) [4]: None of these agents, however, possessed appreciable activity

SMILES: COc1ccc2c(c1)C(=O)N(CCc1ccc(S(=O)(=O)NC(=O)NC3CCCCC3)cc1)C(=O)C2(C)C [gliquidone, reference compound]
- IC50 ([6]; Homo sapiens, SW480, 72 h, Table 2, 72 h, Cell TiterGlo, non-adherent, 20 coded, read-out: SW480 viab. IC50): 5.5 µM
- IC50 [6, 22]: 5.5 µM
- IC50 ([2]; Homo sapiens, HCT-116, 72 h, read-out: HCT-116 viab. IC50, Table 2, basal, 72 h, Cell TiterGlo, non-adherent, 20 coded): 10.1 µM
- IC50 [2, 23]: 10.1 µM
- IC50 ([7]; Homo sapiens, DLD-1, 72 h, Table 2, 72 h, Cell TiterGlo, non-adherent, 20 coded, read-out: DLD-1 viab. IC50): 5.1 µM
- IC50 [7, 24]: 5.11 µM
- IC50 ([9]; Homo sapiens, HCT-116, read-out: HCT-116 (GSK3β) viab. IC50, Table 2, GSK3β inhibitor LY2090314 20 nM, 72 h, Cell TiterGlo, 20 coded): 7 µM
- IC50 [9, 25]: 7.03 µM
- EC50 ([4]; Mus musculus, C2C12, Table 2, C2C12, […], 20 / 20.1 coded, read-out: Wnt pot. EC50): > 10 µM
- EC50 ([5]; Rattus norvegicus, INS-1E; read-out: Ins. sec. EC50): 0.23 µM
- EC50 [5, 27]: 0.23 µM

From PMC4503722, “Novel Phenotypic Outcomes Identified for a Public Collection of Approved Drugs from a Publicly Accessible Panel of Assays” (PLoS ONE, 2015)
